Consider 1 molecule from patent publication US12635691B2, “Fipronil containing insecticide gels” (Henkel AG & Co. KGaA, priority 2022, dated 2026).

Entries after “also recorded” stand apart in the source; their conditions may differ.

This data set in a line: Migration of fipronil from the gel formula into the container, by container material. It is filed as physicochemical. The procedure: When the products are formulated in a gel medium, they are often packaged in the forms of capsules, syringes, or adhesive strips. The packaging materials frequently contain plastics. […] Such plastics may include, but are not limited to, polystyrene/butadiene blend, polyethylene (PE) thermoformed, or PET/PE copolymer […].
Fipronil has a solubility in water around 0.002 g/l (20° C.). At a level of […], fipronil is soluble in the water-based matrix because its solubility in water is 0.002 g/l (20° C., BASF SDS). However, although being soluble in the formula, fipronil tends to migrate, under room temperature conditions and in high temperatures (tested up to 54° C.), into the container (i.e., plastic packaging) depending on the material that the container is made of: • a. […] PET/PE thermoformed→Migration • c. Polyethylene thermoform→Migration • d. Polyethylene injected→No migration • e. Polystyrene→No migration • f. Polystyrene/Butadiene (4%)→migration

Turning to `N#Cc1nn(-c2c(Cl)cc(C(F)(F)F)cc2Cl)c(N)c1[S+]([O-])C(F)(F)F` (stereo not drawn) [Fipronil, 1-[2,6-Cl2 4-CF3 phenyl] 3-CN 4-[SO—CF3] 5-NH2 pyrazole], the “Migration of fipronil into the container” value reads like this: (container: Glass (used as reference), room temperature and high temperatures (tested up to 54° C.)) “No migration, formula stable; also recorded: no fipronil migration”; (container: PET/PE thermoformed, room temperature and up to 54° C.) “Migration”; (container: Polyethylene injected, room temperature and up to 54° C.) “No migration”; (container: Polyethylene thermoform, room temperature and up to 54° C.) “Migration”; (container: Polystyrene/Butadiene (4%), room temperature and up to 54° C.) “migration”; (container: Polystyrene, room temperature and up to 54° C.) “No migration”.
